These results are taken from ChEMBL document CHEMBL1201862, “PubChem BioAssay data set” (2004).

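Dose response: 5 concentrations. Exposure: 48 h. Format: 96-well plates. Endpoint: linear interpolation; highest concentration if not reached. At the GI50, growth is halved.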 Calls of active or inactive are those of the source. Rule as the data show it: active = GI50 up to about 1.1 µM and inactive = higher.

Some test systems named below: DMS-114; K562; SF-539; SK-MEL-2; M14; CCRF-CEM; CAKI-1; HOP-62; SNB-19; 786-0; NCI-H460; HCC 2998; UACC-257; HCT-15; SF-295; HT-29.
What all share (assay): NCI anticancer screen, dose series, 48 h

`Cc1ccc(S(=O)(=O)c2c3nc4ccccc4nc3n3c2[nH]c2ccccc23)cc1`: the GI50 in the test with DMS-114, in the test on K562, in the test with SF-539, in the test with SK-MEL-2, with M14 and in the test on CCRF-CEM was > 100 µM (inactive) each time. Also, the GI50 in the test on CAKI-1, in the test with HOP-62, in the test with SNB-19, in the test with 786-0, in the test on NCI-H460 and in the test with HCC 2998 was > 100 µM (inactive) each time. Also, the GI50 with UACC-257 was > 100 µM (inactive); in the test on HCT-15, more than 100 µM.

Take `COc1ccc2c3c1C(=O)CCC3CO2` (centres undefined): the GI50 in the test on DMS-114, in the test with K562, in the test with SF-539, in the test on SK-MEL-2, in the test with M14 and in the test with CCRF-CEM was > 100 µM (inactive) each time. The GI50 with CAKI-1, in the test with HOP-62, in the test on SNB-19, with 786-0, in the test on NCI-H460 and with HCC 2998 was > 100 µM (inactive) throughout. For the same compound, the GI50 in the test on UACC-257 was > 100 µM (inactive); in the test with SF-295 it was > 100 µM (inactive); in the test with HCT-15, more than 100 µM; in the test with HT-29, > 100 µM (inactive).

For the compound `Cc1cccc(C(C)C)c1NC(=O)C(=O)CC(=O)c1c(C)[n+]([O-])c2ccccc2[n+]1[O-]`, the GI50 with DMS-114 is 16.5 µM (inactive); in the test with K562, > 100 µM (inactive); in the test with SF-539, 36.9 µM (inactive); in the test on SK-MEL-2 it was 29.3 µM (inactive); in the test on M14, 27.8 µM (inactive); in the test on CCRF-CEM it was 32.2 µM (inactive). Also, the GI50 is 25.6 µM (inactive) in the test with CAKI-1; > 100 µM (inactive) in the test with HOP-62; 31.8 µM (inactive) in the test with SNB-19; 49.1 µM (inactive) with 786-0; 21.5 µM (inactive) with NCI-H460; 34.3 µM (inactive) with HCC 2998. For the same compound, the GI50 is 23.3 µM (inactive) in the test on UACC-257, 49.1 µM (inactive) in the test on SF-295, 20.9 µM in the test on HCT-15 and 34.4 µM (inactive) with HT-29.

On to `CC1=NN(C(=O)CC(=O)Nc2ccccc2)C(=O)C1/N=N/c1ccc(S(N)(=O)=O)cc1` (centres undefined), for which the GI50 in the test on DMS-114 was 63.8 µM (inactive); with K562, 35.2 µM (inactive); in the test with SF-539 it was 99.8 µM (inactive); with SK-MEL-2 it was > 100 µM (inactive); in the test with M14 it was 80.2 µM (inactive); in the test on CCRF-CEM it was 46 µM (inactive). Moreover, the GI50 in the test on CAKI-1 was 50.8 µM (inactive); with HOP-62 it was 88.5 µM (inactive); with SNB-19 it was 71.6 µM (inactive); with 786-0 it was 66.5 µM (inactive); with NCI-H460 it was 92.5 µM (inactive); with HCC 2998, 49.9 µM (inactive). Further, the GI50 in the test with UACC-257 was > 100 µM (inactive); in the test with SF-295, > 100 µM (inactive); in the test with HCT-15, more than 100 µM; in the test with HT-29 it was > 100 µM (inactive).

Take `COC(=O)C1=C(O)c2cc(OC)c(OC)cc2C(c2ccc(OC)c(OC)c2)C1` (centres undefined): the GI50 with DMS-114, with K562, in the test with SF-539, in the test with SK-MEL-2, in the test on M14 and with CCRF-CEM was > 100 µM (inactive) each time. Besides, the GI50 with CAKI-1 is > 100 µM (inactive); in the test with HOP-62, > 100 µM (inactive); with 786-0, > 100 µM (inactive); in the test on NCI-H460, 66.7 µM (inactive); with HCC 2998 it was > 100 µM (inactive); in the test on UACC-257 it was > 100 µM (inactive). In addition, the GI50 was 46.9 µM (inactive) in the test with SF-295, 78.7 µM in the test with HCT-15 and 71.6 µM (inactive) with HT-29.

For `CC#C[P+](c1ccccc1)(c1ccccc1)c1ccccc1`, the GI50 in the test with DMS-114 was 2.08 µM (inactive); in the test on K562, 1.95 µM (inactive); with SF-539, 2.25 µM (inactive); with SK-MEL-2 it was 1.56 µM (inactive); with M14 it was 1.88 µM (inactive); in the test with CCRF-CEM, 0.693 µM (active). Also, the GI50 is 3.24 µM (inactive) in the test on CAKI-1; 2.83 µM (inactive) in the test on HOP-62; 3.3 µM (inactive) with SNB-19; 1.6 µM (inactive) in the test on 786-0; 2.48 µM (inactive) with NCI-H460; 3.52 µM (inactive) in the test on HCC 2998. Further, the GI50 in the test with UACC-257 is 2.76 µM (inactive); with SF-295, 2.75 µM (inactive); with HCT-15, 2.66 µM; in the test with HT-29, 3.25 µM (inactive).

Take `CCO/C=C1\N=C(C(Cl)c2ccccc2)OC1=O` (centres undefined): the GI50 with DMS-114 is 61.5 µM (inactive); with K562, > 100 µM (inactive); in the test with SF-539 it was > 100 µM (inactive); in the test on SK-MEL-2 it was > 100 µM (inactive); with M14, > 100 µM (inactive); with CCRF-CEM, > 100 µM (inactive). Also, the GI50 in the test with CAKI-1, in the test on HOP-62, in the test with SNB-19, in the test with 786-0, with NCI-H460 and in the test on HCC 2998 was > 100 µM (inactive) in each case. Also, the GI50 in the test with UACC-257 is > 100 µM (inactive); in the test on SF-295, > 100 µM (inactive); in the test with HCT-15, more than 100 µM; in the test with HT-29, > 100 µM (inactive).

Take `CC1(C)O[C@@H](CCl)C[C@@H](C#N)O1`: the GI50 in the test on DMS-114, with K562, in the test with SF-539, in the test with SK-MEL-2, in the test on M14 and in the test on CCRF-CEM was > 100 µM (inactive) in each case. The GI50 in the test with CAKI-1, in the test on HOP-62, in the test with SNB-19, in the test with 786-0, with NCI-H460 and in the test with HCC 2998 was > 100 µM (inactive) each time. The GI50 in the test on UACC-257, with SF-295 and in the test on HT-29 was > 100 µM (inactive) each time.
